This is an account of results in patent US5302602A, “Tricyclic thromboxane A2 antagonists” (Kyowa Hakko Kogyo Co., Ltd., priority 1987, dated 1994).

Where two headings read alike, the source gives them in different places.

For series [1], the system named is guinea pig platelets (TXA2/prostaglandin H2 receptor). Briefly: Test on anti-platelet activity (TXA2 antagonizing test): inhibition of U-46619-induced platelet aggregation. Format: cell-based. The note with it: Cavia porcellus, 0.05 h; minimum concentration inhibiting U-46619 (0.5-1 μM)-induced platelet aggregation by 30% or more; guinea pig PRP; read-out: TXA2 Antagonizing Activity (MEC), minimum effective concentration. The protocol: Using guinea pig platelets influence of the compounds in accordance with the present invention on platelet aggregation induced by U-46619 (9,11-dideoxy-9α,11a-methanoepoxyprostaglandin F2 α; manufactured by Cayman Chemica Co., Ltd.) which is a TXA2 /prostaglandin H2 receptor stimulant was examined.
Male guinea pig (Hartley strain; body weight, 300 to 600 g) was anesthesized by intraperitoneal administration of sodium pentobarbital (30 mg/kg) and blood was collected from the descending aorta of the abdomen with a 1/10 volume of sodium citrate. By centrifugation (KC-70: manufactured by Kubota Co., Ltd.) at 800 rpm for 10 minutes, platelet rich plasma (PRP) was collected. Platelet aggregation induced by U-46619 (0.5-1 μM) was determined by photometry [Born, G.V.R. et al., Nature (London), 194, 927-929 (1962)]. A test compound was pretreated 3 minutes prior to aggregation induction and ability of inhibiting aggregation was measured. The minimum concentration for inhibiting platelet aggregation by 30% or more was defined as the minimum effective concentration (MEC) of the test compound.

The target of another series is T1, TXA2 receptor (Cavia porcellus, UniProt A0A286Y4I8).
T1 construct: To a washed platelet suspension (1×10^8 platelets) of guinea pig; endogenous in cells; host or cells: washed guinea pig platelets
T1 sequence (A0A286Y4I8 1-347): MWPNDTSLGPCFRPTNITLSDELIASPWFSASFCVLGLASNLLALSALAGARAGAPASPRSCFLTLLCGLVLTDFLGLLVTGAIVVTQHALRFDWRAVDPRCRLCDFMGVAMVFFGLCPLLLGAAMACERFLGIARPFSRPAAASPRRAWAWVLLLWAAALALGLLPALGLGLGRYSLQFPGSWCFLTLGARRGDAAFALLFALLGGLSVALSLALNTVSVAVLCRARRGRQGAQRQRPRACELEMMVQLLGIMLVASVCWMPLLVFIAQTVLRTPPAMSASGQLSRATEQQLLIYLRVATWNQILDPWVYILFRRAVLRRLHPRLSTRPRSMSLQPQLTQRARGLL
In words: Binding study using 3H-U46619 (TXA2 receptor binding activities test). The note with it: 20 min; test compound 1 μM; 12 nM 3H-U46619; washed guinea pig platelets; 37° C., 20 minutes; read-out: % Inhibition (3H-U46619 binding). The arrangement: species or system guinea pig. The protocol: Receptor binding was determined by a modified method of Kattelman et al. (Thrombosis Research, 41, 471 (1986)].
To a washed platelet suspension (1×10^8 platelets) of guinea pig were added 12 nM of tritium-labeled U46619 (^3 H-U46619; NEN Co., Ltd.) and a test compound (final concentration: 1 μM) solution. After keeping at 37° C. for 20 minutes, the mixture was rapidly filtered through a glass fiber filter paper (GF/C; Whatman). Immediately, the filter paper was washed 5 times with 3 ml of ice-cold 50 mM Tris-hydroxymethylaminomethane buffer (containing 100 mM sodium chloride). The glass fiber filter was transferred to a vial and a scintillator (Ex-H; manufactured by Wako Pure Chemical Industries Co., Ltd.) was added thereto. The radioactivity was determined with a liquid scintillation counter.
It is already known that ^3 H-U46619 is capable of binding with TXA2 receptor (see the publication supra). An inhibitory activity of the test compound against this binding means an ability of binding with the TXA2 receptor. It is also known that a good relationship exists between this binding activity and the anti-platelet activity (TXA2 antagonizing test).
An inhibitory activity (binding activity) of the test compound was calculated by the following equation. [formula]
Amount of the total binding is an amount of ^3 H-U46619-bound radioactivity in the absence of a test compound.
The amount of non-specific binding is used to mean an amount of ^3 H-U46619-bound radioactivity in the presence of 10 μM U-46619.
The amount bound in the presence of a test compound is an amount of ^3 H-U46619-bound radioactivity in the presence of a test compound in various concentrations.

Series [2] deals with homologous passive cutaneous anaphylaxis (PCA). Briefly: Antiallergic activity test: homologous passive cutaneous anaphylaxis (PCA) test for 48 hours using rats. The note with it: Rattus norvegicus, po, minimum dose with at least one of 3 rats showing PCA inhibition rate 50% or more, read-out: Antiallergic Activity (MED), minimum effective dose. Format: in vivo, rat (Wistar strain, male). The protocol: Antiallergic activity was examined in accordance with the passive cutaneous anaphylaxis (PCA) test using rats. As test animals, Wistar strain male rats weighing 180 to 220 g were used to collect antiserum and for the PCA test, Wistar strain male rats weighing 120 to 140 g were used.
Anti-EWA rat serum was prepared according to the method of Stotland and Share [Can. J. Physiol. Pharmacol., 52, 1114 (1974)]. That is, 1 mg of EWA was mixed with 20 mg of aluminum hydroxide gel and 0.5 ml of pertussis-diphtberia-tetanus mixed vaccine. The mixture was subcutaneously administered to the rat paw in 4 portions. Fourteen days after, blood was collected from the carotid artery and the serum was isolated and stored in a state frozen at -80° C. Titer of this antiserum to homologous PCA for 48 hours was 1:32.
Three rats were used per group. After the hair at the back was cut, 0.05 ml each of anti-EWA rat serum diluted to 8-fold with physiological saline was intracutaneously injected to each rat at the back in 2 places to passively sensitize the rat. A test compound or its solution (physiological saline solution or CMC solution) was orally administered 47 hours after and 0.5 ml/100 g of 1% Evans Blue physiological saline containing 2 mg of antigen EWA was then intravenously administered to the tail vein an hour after the administration. Thirty minutes later, the animal was bled to death. The skin was peeled off and a leaked dye amount at the blue dyed portion was measured according to the method of Katayama et al. [Microbiol. Immunol., 22, 89 (1978)]. That is, the blue dyed portion was cut off with scissors, put into a test tube charged with 1 ml of 1 N potassium hydroxide and incubated at 37° C. for 24 hours. After 9 ml of a mixture of 0.6 N phosphate:acetone (5:13) was added to the system, the mixture was shaken followed by centrifugation at 2500 rpm for 10 minutes. The absorbancy of the supernatant at 620 nm was measured and the leaked dye amount was quantitatively determined by comparison with a calibration curve previously prepared. A value of one rat was obtained from a mean value of the two portions and an inhibition rate-of each rat was calculated according to the following equation. [formula]
The case showing that the inhibition rate is 50% or more is judged to be positive in the PCA inhibition activity and the minimum dose in which at least one out of 3 rats was recognized to be positive was defined as the minimum effective dose (MED) of the test compound.

The next series relates to mice. In words: Acute toxicity test. Format: in vivo. The note with it: mortality observed for seven days. The protocol: Using three dd strain male mice weighing 20±1 g, a test compound was orally (po; 300 mg/kg) or intraperitoneally (ip; 100 mg/kg) administered. MLD (the minimum lethal dose) was determined by observing the mortality for seven days after administration.

For a further series, the target named is T2, histamine H1 receptor (Cavia porcellus, UniProt P31389).
T2 construct: from tissue; host or cells: guinea pig cerebellum membranes
T2 sequence (P31389 whole entry): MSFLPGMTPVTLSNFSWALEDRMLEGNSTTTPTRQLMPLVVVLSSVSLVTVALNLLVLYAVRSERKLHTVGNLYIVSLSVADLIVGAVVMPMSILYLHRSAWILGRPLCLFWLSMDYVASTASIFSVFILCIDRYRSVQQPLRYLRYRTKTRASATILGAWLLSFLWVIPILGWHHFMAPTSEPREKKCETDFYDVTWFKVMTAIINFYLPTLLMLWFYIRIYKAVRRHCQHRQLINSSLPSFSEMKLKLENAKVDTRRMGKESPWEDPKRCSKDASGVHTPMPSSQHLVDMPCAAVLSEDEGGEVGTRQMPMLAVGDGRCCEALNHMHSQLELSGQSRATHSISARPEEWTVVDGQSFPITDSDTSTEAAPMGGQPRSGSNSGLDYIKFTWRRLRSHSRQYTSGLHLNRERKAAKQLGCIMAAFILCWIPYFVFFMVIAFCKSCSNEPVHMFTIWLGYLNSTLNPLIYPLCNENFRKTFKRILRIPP
In words: Binding study using 3H-pyrilamine (histamine H1 receptor binding). The arrangement: species or system guinea pig. The note with it: read-out: (%) Inhibition (3H-pyrilamine binding). The procedure: Receptor binding was determined by the method of chang et al. [J. Neurochem., 32, 1953 (1979)].
The cerebellum of guinea pig was suspended in a 40-fold amount (V/W) of chilled 50 mM phosphate buffer (pH 7.5) with Polytron Homogenizer (Kinematica Co., Ltd.). The suspension was centrifuged (35,500×g, 10 minutes). The resulting precipitates were resuspended in an equal amount of fresh buffer followed by centrifugation. A 100-fold amount (V/W) of chilled buffer was added to the final precipitates.
To 1 ml of the membrane suspension adjusted as described above were added 50 μl of tritium-labeled pyrilamine (^3 H-pyrilamine; NEN Co., Ltd.) and 50 μl of a test compound. The mixture was allowed to stand at 25° C. for 30 minutes, 4 ml of chilled buffer was added thereto. The mixture was rapidly filtered through a glass fiber filter (GF/C; Whatman). The filter paper was further washed three times with 5 ml of buffer. Hereafter procedures were performed in a manner similar to the TXA2 receptor binding test to determine radioactivity.
An inhibitory activity of the test compound against H1 receptor was calculated by the following equation. [formula]
Amount of the total binding is an amount of ^3 H-pyrilamine-bound radioactivity in the absence of a test compound.
The amount of non-specific binding is an amount of ^3 H-pyrilamine-bound radioactivity in the presence of 3 μM Astemizole (manufactured by Janesen Pharmaceutics).
The amount bound in the presence of a test compound is an amount of ^3 H-pyrilamine-bound radioactivity in the presence of a test compound in various concentrations.

A word on the inhibition: it is the relative decrease from the control value, in per cent. On to `O=C(O)COc1ccc(CCNS(=O)(=O)c2ccccc2)cc1` [BM13177, reference compound], for which the minimal effective concentration in series [1] stood at 3 µg/mL. Moreover, the inhibition at 1 µM on TXA2 receptor came out at 31%; on histamine H1 receptor (test compound 10^-6 M, guinea pig cerebellum membranes, 25° C., 30 minutes), 0%. Moreover, in series [2], the minimal effective dose was more than 100 mg/kg. Also, the results for the “Acute Toxicity (MLD), minimum lethal dose” value (shortened to “Acute Toxicity (MLD)”) in the series with mice (ip) and with mice (po) were more than 100 mg/kg and more than 300 mg/kg, respectively.
On to `O=C(O)c1ccc2c(c1)C(SCCN1CCN(c3ccccc3)CC1)c1ccccc1CO2` (stereo not drawn) [Compound 1b, 11-[2-(4-Phenyl-1-piperazinyl)ethyl]thio-6,11-dihydrodibenz[b,e]oxepin-2-carboxylic acid], for which the minimal effective concentration in series [1] amounted to 3 µg/mL. Further, the minimal effective dose in series [2] stood at 10 mg/kg. For the same compound, the “Acute Toxicity (MLD)” value in the series on mice (ip) is on record as more than 100 mg/kg; in the series with mice (po) it was more than 300 mg/kg. The inhibition at 1 µM at histamine H1 receptor stood at 68%.
In the case of `O=C(O)c1ccc2c(c1)C(SCCN1CCN(Cc3ccccc3)CC1)c1ccccc1CO2` (stereo not drawn) [Compound 11b, 11-[2-(4-Benzyl-1-piperazinyl)ethyl]thio-6,11-dihydrodibenz[b,e]oxepin-2-carboxylic acid], the minimal effective concentration in series [1] worked out at 1 µg/mL. Further, the figures for the inhibition at 1 µM on TXA2 receptor and at histamine H1 receptor were 70% and 95%, respectively. Also, the minimal effective dose in series [2] turned out to be 10 mg/kg. Further, the “Acute Toxicity (MLD)” value is more than 100 mg/kg in the series on mice (ip) and more than 300 mg/kg with mice (po).
Regarding `O=C(O)c1ccc2c(c1)C(SCCN1CCN(S(=O)(=O)c3cccs3)CC1)c1ccccc1CO2` (stereo not drawn) [Compound 25b, 11-[2-[4-(2-Thienylsulfonyl)-1-piperazinyl]ethyl]thio-6,11-dihydrodibenz[b,e]oxepin-2-carboxylic acid.0.5 isopropanol.dihydrate], the minimal effective concentration in series [1] was found to be 3 µg/mL. Moreover, the inhibition at 1 µM at TXA2 receptor is 78%; at histamine H1 receptor, 95%. The minimal effective dose in series [2] was 10 mg/kg. The “Acute Toxicity (MLD)” value is reported as more than 100 mg/kg with mice (ip) and more than 300 mg/kg with mice (po).
Consider `O=C(O)c1ccc2c(c1)C(SCCN1CCC(Cc3ccccc3)CC1)c1ccccc1CO2` (stereo not drawn) [Compound 38b], for which the minimal effective concentration in series [1] worked out at 1 µg/mL. Besides, the results for the inhibition at 1 µM on TXA2 receptor and on histamine H1 receptor were 81% and 92%, respectively. Moreover, in series [2], the minimal effective dose was 1 mg/kg.
